In ChEMBL document CHEMBL3616371, “Synthesis of BF₃ catalyzed Mannich derivatives with excellent ee from phenylpropanolamine, study of their antimicrobial activity and molecular docking” (2015):
Values after ≈ are worked out from the molar mass of the structure shown.

How the values were obtained:
[1] = test system: Staphylococcus aureus; assay: Antibacterial activity against Staphylococcus aureus assessed as growth inhibition at 1 mg/well after 24 hrs by Well method; type: functional
[2] = test system: Staphylococcus epidermidis; assay: Antibacterial activity against Staphylococcus epidermidis assessed as growth inhibition at 1 mg/well after 24 hrs by Well method; type: functional
[3] = test system: Staphylococcus aureus; assay: Antibacterial activity against methicillin-resistant Staphylococcus aureus assessed as growth inhibition at 1 mg/well after 24 hrs by Well method; type: functional
[4] = test system: Salmonella typhimurium; assay: Antibacterial activity against Salmonella typhimurium assessed as growth inhibition at 1 mg/well after 24 hrs by Well method; type: functional, Salmonella enterica subsp. enterica serovar Typhimurium
[5] = test system: Proteus vulgaris; assay: Antibacterial activity against Proteus vulgaris assessed as growth inhibition at 1 mg/well after 24 hrs by Well method; type: functional
[6] = test system: Micrococcus luteus; assay: Antibacterial activity against Micrococcus luteus assessed as growth inhibition at 1 mg/well after 24 hrs by Well method; type: functional
[7] = test system: Klebsiella pneumoniae; assay: Antibacterial activity against Klebsiella pneumoniae assessed as growth inhibition at 1 mg/well after 24 hrs by Well method; type: functional
[8] = test system: Shigella flexneri; assay: Antibacterial activity against Shigella flexneri assessed as growth inhibition at 1 mg/well after 24 hrs by Well method; type: functional
[9] = test system: Bacillus subtilis; assay: Antibacterial activity against Bacillus subtilis assessed as growth inhibition at 1 mg/well after 24 hrs by Well method; type: functional
[10] = test system: Pseudomonas aeruginosa; assay: Antibacterial activity against Pseudomonas aeruginosa assessed as growth inhibition at 1 mg/well after 24 hrs by Well method; type: functional
[11] = test system: Candida albicans; assay: Antifungal activity against Candida albicans assessed as growth inhibition at 1 mg/well after 48 hrs by Well method; type: functional
[12] = test system: Malassezia pachydermatis; assay: Antifungal activity against Malassezia pachydermatis assessed as growth inhibition at 1 mg/well after 48 hrs by Well method; type: functional
[13] = test system: Staphylococcus aureus; assay: Antibacterial activity against Staphylococcus aureus after 24 hrs by two fold serial dilution method; type: functional
[14] = test system: Staphylococcus epidermidis; assay: Antibacterial activity against Staphylococcus epidermidis after 24 hrs by two fold serial dilution method; type: functional
[15] = test system: Staphylococcus aureus; assay: Antibacterial activity against methicillin-resistant Staphylococcus aureus after 24 hrs by two fold serial dilution method; type: functional
[16] = test system: Salmonella typhimurium; assay: Antibacterial activity against Salmonella typhimurium after 24 hrs by two fold serial dilution method; type: functional, Salmonella enterica subsp. enterica serovar Typhimurium; conditions: Salmonella enterica
[17] = test system: Proteus vulgaris; assay: Antibacterial activity against Proteus vulgaris after 24 hrs by two fold serial dilution method; type: functional
[18] = test system: Micrococcus luteus; assay: Antibacterial activity against Micrococcus luteus after 24 hrs by two fold serial dilution method; type: functional
[19] = test system: Klebsiella pneumoniae; assay: Antibacterial activity against Klebsiella pneumoniae after 24 hrs by two fold serial dilution method; type: functional
[20] = test system: Shigella flexneri; assay: Antibacterial activity against Shigella flexneri after 24 hrs by two fold serial dilution method; type: functional
[21] = test system: Bacillus subtilis; assay: Antibacterial activity against Bacillus subtilis after 24 hrs by two fold serial dilution method; type: functional
[22] = test system: Pseudomonas aeruginosa; assay: Antibacterial activity against Pseudomonas aeruginosa after 24 hrs by two fold serial dilution method; type: functional
[23] = test system: Candida albicans; assay: Antifungal activity against Candida albicans after 48 to 72 hrs by two fold serial dilution method; type: functional
[24] = test system: Malassezia pachydermatis; assay: Antifungal activity against Malassezia pachydermatis after 48 to 72 hrs by two fold serial dilution method; type: functional
[25] = test system: Klebsiella aerogenes; assay: Antibacterial activity against Enterobacter aerogenes assessed as growth inhibition at 1 mg/well after 24 hrs by Well method; type: functional
[26] = test system: Klebsiella aerogenes; assay: Antibacterial activity against Enterobacter aerogenes after 24 hrs by two fold serial dilution method; type: functional
[27] = test system: Salmonella enterica subsp. enterica serovar Paratyphi B; assay: Antibacterial activity against Salmonella paratyphi B assessed as growth inhibition at 1 mg/well after 24 hrs by Well method; type: functional
[28] = test system: Aspergillus flavus; assay: Antifungal activity against Aspergillus flavus assessed as growth inhibition at 1 mg/well after 48 hrs by Well method; type: functional
[29] = test system: Aspergillus flavus; assay: Antifungal activity against Aspergillus flavus after 48 to 72 hrs by two fold serial dilution method; type: functional
[30] = test system: Salmonella enterica subsp. enterica serovar Paratyphi B; assay: Antibacterial activity against Salmonella paratyphi B after 24 hrs by two fold serial dilution method; type: functional

Row | Compound | inhibition zone (IZ) [1] [mm] | inhibition zone (IZ) [2] [mm] | inhibition zone (IZ) [3] [mm] | inhibition zone (IZ) [4] [mm] | inhibition zone (IZ) [5] [mm] | inhibition zone (IZ) [6] [mm] | inhibition zone (IZ) [7] [mm] | inhibition zone (IZ) [8] [mm] | inhibition zone (IZ) [9] [mm] | inhibition zone (IZ) [10] [mm] | MIC [13] [µg/mL] | MIC [15] [µg/mL] | MIC [16] [µg/mL] | MIC [17] [µg/mL] | MIC [18] [µg/mL] | MIC [20] [µg/mL] | MIC [21] [µg/mL] | MIC [22] [µg/mL] | inhibition zone (IZ) [25] [mm] | MIC [26] [µg/mL] | further results
1 | C[C@H](NCCC(=O)c1ccccc1)[C@H](O)c1ccccc1.Cl | 27 | 34 | 27 | 26 | 25 | 30 | 21 | 20 | 18 | 20 | 12.5 | 12.5 | 12.5 | 12.5 | 6.25 | 50 | 25 | 25 | 28 | 6.25 | inhibition zone (IZ) [11]: 16 mm; inhibition zone (IZ) [12]: 12 mm; MIC [14]: 3.13 µg/mL; MIC [19]: 25 µg/mL; MIC [23]: 50 µg/mL; MIC [24]: > 50 µg/mL
2 | COc1ccc(C(=O)CCN[C@H](C)[C@@H](O)c2ccccc2)cc1.Cl | 20 | 24 | 22 | 18 | 22 | 19 | 16 | 24 | 22 | 18 | 12.5 | 6.25 | 25 | 12.5 | 12.5 | 25 | 25 | 25 | 19 | 12.5 | inhibition zone (IZ) [27]: 14 mm; inhibition zone (IZ) [28]: 16 mm; MIC [14]: 6.25 µg/mL; MIC [19]: > 50 µg/mL; MIC [24]: > 50 µg/mL; MIC [29]: 50 µg/mL
3 | C[C@H](NCCC(=O)c1ccc(Cl)cc1)[C@H](O)c1ccccc1.Cl | 26 | 28 | 29 | 24 | 25 | 28 | 11 | 22 | 19 | 20 | 50 | 25 | 50 | 25 | 50 | 25 | 25 | 25 | 25 | 50 | inhibition zone (IZ) [12]: 12 mm; inhibition zone (IZ) [28]: 15 mm; MIC [14]: 25 µg/mL; MIC [30]: > 50 µg/mL; MIC [19]: 50 µg/mL; MIC [29]: 50 µg/mL
4 | C[C@@H](NCCC(=O)c1ccc(Cl)cc1Cl)[C@@H](O)c1ccccc1.Cl | 37 | 34 | 34 | 34 | 33 | 28 |  | 32 | 26 | 24 | 3.13 | 3.13 | 3.13 | 3.13 | 6.25 | 3.13 | 6.25 | 6.25 | 35 | 3.13 | inhibition zone (IZ) [27]: 16 mm; MIC [14]: 3.13 µg/mL; MIC [30]: 50 µg/mL
5 | CC(=O)N1CCN(c2ccc(OCC3COC(Cn4ccnc4)(c4ccc(Cl)cc4Cl)O3)cc2)CC1 (stereo not given) [KETOCONAZOLE] |  |  |  |  |  |  |  |  |  |  |  |  |  |  |  |  |  |  |  |  | inhibition zone (IZ) [11]: 28 mm; inhibition zone (IZ) [12]: 26 mm; inhibition zone (IZ) [28]: 24 mm; MIC [23]: 25 µg/mL (≈ 47 µM); MIC [24]: 25 µg/mL (≈ 47 µM); MIC [29]: < 12.5 µg/mL
6 | C[C@@H](NCCC(=O)c1ccc(Cl)cc1)[C@@H](O)c1ccccc1.Cl | 36 | 36 | 33 | 30 | 32 | 29 | 18 | 30 | 24 | 23 | 3.13 | 3.13 | 6.25 | 3.13 | 6.25 | 6.25 | 12.5 | 12.5 | 34 | 3.13 | inhibition zone (IZ) [11]: 24 mm; inhibition zone (IZ) [12]: 15 mm; MIC [14]: 3.13 µg/mL; MIC [19]: 50 µg/mL; MIC [23]: 12.5 µg/mL; MIC [24]: 50 µg/mL
7 | CN[C@@H]1[C@H](O[C@H]2[C@H](O[C@H]3[C@H](O)[C@@H](O)[C@H](N=C(N)N)[C@@H](O)[C@@H]3N=C(N)N)O[C@@H](C)[C@]2(O)C=O)O[C@@H](CO)[C@H](O)[C@H]1O [STREPTOMYCIN] | 14 |  | 30 | 24 | 30 | 26 | 20 | 30 | 22 | 30 | 6.25 (≈ 10.7 µM) | 6.25 (≈ 10.7 µM) | 6.25 (≈ 10.7 µM) | 6.25 (≈ 10.7 µM) | 6.25 (≈ 10.7 µM) | 6.25 (≈ 10.7 µM) | 25 (≈ 43 µM) | 25 (≈ 43 µM) | 22 | 25 (≈ 43 µM) | inhibition zone (IZ) [27]: 18 mm; MIC [30]: 30 µg/mL (≈ 51.6 µM); MIC [19]: 25 µg/mL (≈ 43 µM)
8 | C[C@@H](NCCC(=O)c1ccccc1)[C@@H](O)c1ccccc1.Cl | 22 | 26 | 28 | 22 | 24 | 28 | 19 | 22 | 20 | 22 | 25 | 6.25 | 25 | 25 | 12.5 | 25 | 25 | 12.5 | 20 | 50 | inhibition zone (IZ) [11]: 15 mm; inhibition zone (IZ) [12]: 14 mm; MIC [14]: 12.5 µg/mL; MIC [19]: 50 µg/mL; MIC [23]: 50 µg/mL; MIC [24]: 50 µg/mL
